Test results taken from US20180319766A1, “CO-CRYSTALS OF BENZIMIDAZOLE COMPOUNDS” (FAES FARMA, S.A., priority 2015, published 2018).

Experiments:
[1] = Stability of the cocrystal under forced conditions of humidity and temperature (ICH), XRPD; type: physicochemical; conditions: 40° C.
Procedure: […] The solids were analyzed by XRPD every day during the first week and once a week afterwards, to detect possible crystalline transformations.

ΔpKa bilastine-coformer = type: physicochemical
[2] = Solubility of cocrystals in water at room temperature, relative to bilastine (HPLC); conditions: 400 mg of product in 24 ml, result in words, data only in figures
Procedure: Solubility of cocrystals was determined by stirring the product in water at room temperature (400 mg of product in 24 ml of water, 60 vol.). The product was previously milled in order to reduce the crystal size effect. A sample is collected and filtered using a sintered funnel (n° 3) periodically (30, 60, 180 min and after overnight). The filtered solid was immediately analyzed by XRPD, while the mother liquors are filtered through a 0.22 um filter and the concentration of Bilastine is determined by HPLC area (in some experiments where a high solubility was detected the mother liquor was diluted by a factor 10). This concentration is compared with the Bilastine concentration obtained in the same conditions in order to determine a relative solubility.
HPLC analyses were performed by duplicate on an Agilent 1100 series apparatus with a XBridge C-18 column at room temperature. 25μL sample were injected. The mobile phase (isocratic) was set as following: 52%(Methanol:aqueous octylamine 0.01M pH=7, 65:35)−42% (Acetonitrile:aqueous octylamine 0.01M pH=7, 60:40)

[3] = bilastine as zwitterion; cited from earlier work
[4] = pH range 5-8; cited from earlier work

| Time the crystalline form is stable under forced conditions (XRPD) ([1]; 75±5% RH) | Time the crystalline form is stable under forced conditions (XRPD) ([1]; 70±5% RH) | Structure (SMILES) | also measured |
| --- | --- | --- | --- |
| at least 1 week |  | CCOCCn1c(C2CCN(CCc3ccc(C(C)(C)C(=O)O)cc3)CC2)nc2ccccc21.Nc1ccc(C(=O)O)cc1 [AB(VII)] |  |
| at least 1 week |  | CCOCCn1c(C2CCN(CCc3ccc(C(C)(C)C(=O)O)cc3)CC2)nc2ccccc21.CCOCCn1c(C2CCN(CCc3ccc(C(C)(C)C(=O)O)cc3)CC2)nc2ccccc21.Nc1ccc(C(=O)O)cc1 [AB(VIII)] |  |
|  | at least 1 weeks | CCOCCn1c(C2CCN(CCc3ccc(C(C)(C)C(=O)O)cc3)CC2)nc2ccccc21.O=C(O)CCCCC(=O)O [AD(I)] |  |
|  | at least 1 weeks | CCOCCn1c(C2CCN(CCc3ccc(C(C)(C)C(=O)O)cc3)CC2)nc2ccccc21.CCOCCn1c(C2CCN(CCc3ccc(C(C)(C)C(=O)O)cc3)CC2)nc2ccccc21.O=C(O)CCCCC(=O)O [AD(III)] |  |
|  | at least 4 weeks | CCOCCn1c(C2CCN(CCc3ccc(C(C)(C)C(=O)O)cc3)CC2)nc2ccccc21.CCOCCn1c(C2CCN(CCc3ccc(C(C)(C)C(=O)O)cc3)CC2)nc2ccccc21.O=C(O)CCCC(=O)O [GL(I)] |  |
|  | at least 4 weeks | CCOCCn1c(C2CCN(CCc3ccc(C(C)(C)C(=O)O)cc3)CC2)nc2ccccc21.O=C(O)CCCC(=O)O [GL(V)] |  |
|  |  | O=C(O)C[C@H](O)C(=O)O [L-Malic acid] | ΔpKa bilastine-coformer (ΔpKa bilastine-coformer): 0.94 |
| at least 1 week |  | CC=CC=CC(=O)O.CCOCCn1c(C2CCN(CCc3ccc(C(C)(C)C(=O)O)cc3)CC2)nc2ccccc21.CCOCCn1c(C2CCN(CCc3ccc(C(C)(C)C(=O)O)cc3)CC2)nc2ccccc21 [SO(I)] | Solubility comparison with bilastine BLN(I) [2]: improves greatly the solubility of bilastine |
| at least 1 week |  | CCOCCn1c(C2CCN(CCc3ccc(C(C)(C)C(=O)O)cc3)CC2)nc2ccccc21.O=C(O)CCC(=O)O [SU(VI)] |  |
| at least 1 week |  | CCOCCn1c(C2CCN(CCc3ccc(C(C)(C)C(=O)O)cc3)CC2)nc2ccccc21.CCOCCn1c(C2CCN(CCc3ccc(C(C)(C)C(=O)O)cc3)CC2)nc2ccccc21.O=C(O)CCC(=O)O [SU(VII)] |  |
|  |  | CCOCCn1c(C2CCN(CCc3ccc(C(C)(C)C(=O)O)cc3)CC2)nc2ccccc21 [bilastine, 2-[4-(2-{4-[1-(2-Ethoxyethyl)-1H-benzimidazol-2-yl]-1-piperidinyl}ethyl)phenyl]-2-methylpropanoic acid] | pKa of the acid function (carboxylate) [3]: 4.4; pKa of the base function (protonated amine) [3]: 8.8; Solubility [4]: around 500 μg/mL |
